Experiments:
[1] = molecular target: Aurora B-as7 (L138V, L154G-AB) kinase (Homo sapiens, UniProt Q96GD4, L138V/L154G); assay: In vitro kinase assay with AB-as7; type: biochemical; details: phosphodonor as labelled
[2] = molecular target: T1, AA-as7 kinase (Aurora A LI85V, L201G) (Mus musculus, UniProt P97477, L185V/L201G); assay: In vitro kinase assay with AA-as7 and TPX2; type: biochemical, murine; details: AA-as7; phosphodonor as labelled
T1 construct: the Aurora A mutant is the double mutant Aurora A (AA-as7); 6-His; made in house; host or cells: Sf9 insect cells (baculovirus, Bac-to-Bac)
T1 sequence (P97477 1-395 L185V/L201G): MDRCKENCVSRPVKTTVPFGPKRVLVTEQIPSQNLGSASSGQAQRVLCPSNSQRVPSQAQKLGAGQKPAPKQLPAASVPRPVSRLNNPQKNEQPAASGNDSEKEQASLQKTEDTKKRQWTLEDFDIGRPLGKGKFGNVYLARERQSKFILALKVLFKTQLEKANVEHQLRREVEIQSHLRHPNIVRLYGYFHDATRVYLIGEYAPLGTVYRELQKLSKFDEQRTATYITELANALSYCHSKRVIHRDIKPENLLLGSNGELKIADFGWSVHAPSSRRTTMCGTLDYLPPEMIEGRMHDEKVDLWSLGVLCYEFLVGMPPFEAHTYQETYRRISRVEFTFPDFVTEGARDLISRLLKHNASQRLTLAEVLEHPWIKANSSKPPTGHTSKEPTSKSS
Description: For in vitro labeling, Aurora A/TPX2 complex (on beads) was pre-incubated with 10 μM cold ATP for 10 min to activate the kinase. The beads were washed twice with kinase buffer, and then subjected to kinase assay with 2-5 μg of recombinant protein (such as PHLDA) and 1 μCi of [γ-^32P] ATP. Reactions were terminated by adding SDS sample buffer, separated by SDS-PAGE gel, transferred to PVDF membrane and exposed to Biomax MS film. Aurora A kinase assays were conducted using 1 μCi of [γ-^32P] ATP and 3 μg of Aurora A substrate peptide in a final volume of 30 μl at 30° C. as reported before (Sun, et al, (2008a) Mol. Biol. Cell 19, 3052-3069).
IC50 values were determined by fitting the data to a sigmoidal dose response curve using GraphPad Prism 4.0 software. Km and Vmax values were derived from the assay described above using various concentrations of AA peptide substrate and ATP. Km and Vmax values were determined using GraphPad Prism 4.0 software.

[3] = test system: wt kinases present in the MDA cell lysate; assay: In vitro kinase reaction with MDA cell lysate and [γ-32P] Phenethyl-ATP; type: biochemical; details: cell lysate alone, without AA-as7/TPX2
Description: To prepare a labeled sample for 2D gel electrophoresis, kinase reactions with whole cell lysate or fractionated lysate were carried out as published before (Sun, et al, (2008a) Mol. Biol. Cell 19, 3052-3069). Gel spots were manually excised and automatically processed for peptide mapping experiments using a Micromass MassPREP Station in conjunction with manufacturer specified protocols.
An in vitro kinase reaction was performed using unsynchronized MDA cell lysate, [[γ-^32P] Phenethyl-ATP and Aurora A-as7/TPX2 to identify novel Aurora A substrates. […] Phenethyl ATP is specific for the engineered kinase and is not accepted by wt kinases present in the cell lysate. In contrast, when AA-as7 and TPX2 were added to the cell lysate along with Phenethyl ATP, it phosphorylated several proteins. These proteins are the direct targets of Aurora A. To isolate these targets, proteins were separated using 2D gel electrophoresis, isolated and visualized by autoradiography. Radiolabeled proteins were excised from gel and subsequent to trypsin digestion the peptide cleavage products were identified by tandem mass spectrometry. Several Aurora A substrates were identified including PHLDA1, p53 and vimentin.

Aurora B-as7 (L138V, L154G-AB) kinase, sequence (Q96GD4 whole entry L138V/L154G): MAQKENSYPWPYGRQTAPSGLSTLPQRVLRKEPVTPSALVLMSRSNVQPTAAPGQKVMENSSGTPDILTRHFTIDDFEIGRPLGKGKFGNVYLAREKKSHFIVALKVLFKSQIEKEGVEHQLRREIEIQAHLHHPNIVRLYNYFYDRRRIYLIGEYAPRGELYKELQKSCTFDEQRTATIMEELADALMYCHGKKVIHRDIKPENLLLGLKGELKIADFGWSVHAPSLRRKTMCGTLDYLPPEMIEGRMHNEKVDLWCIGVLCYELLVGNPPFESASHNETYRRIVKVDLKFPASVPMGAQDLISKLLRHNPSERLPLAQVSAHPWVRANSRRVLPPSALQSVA

Kcat [1]: 6.2 s⁻¹ | Km [1]: 11.4 µM | Vmax [1]: 7.44 × 10^4 | Kcat [2]: 223 s⁻¹ | Km [2]: 11.6 µM | Vmax [2]: 3.02 × 10^6
Compound: O=P(O)(O)OP(=O)(O)OP(=O)(O)OC[C@H]1O[C@@H](n2cnc3c(NCCc4ccccc4)ncnc32)[C@H](O)[C@@H]1O [N^6-phenethyl ATP, N^6-(phenethyl) ATP]
labelling signal in cell lysate [3]: no signal
